Measurements from the NIST ThermoML archive (doi:10.1016/j.fluid.2014.05.021).
± gives the expanded uncertainty stated by the source.

Details: 101.33 kPa, Liquid, Vibrating tube method

Row | Compound | mass density (278.15 K) [kg/m3] | mass density (283.15 K) [kg/m3] | mass density (288.15 K) [kg/m3] | mass density (293.15 K) [kg/m3] | mass density (298.15 K) [kg/m3] | mass density (303.15 K) [kg/m3] | mass density (308.15 K) [kg/m3] | mass density (313.15 K) [kg/m3] | mass density (318.15 K) [kg/m3] | mass density (323.15 K) [kg/m3] | mass density (328.15 K) [kg/m3] | mass density (333.15 K) [kg/m3] | mass density (338.15 K) [kg/m3] | mass density (343.15 K) [kg/m3] | mass density (348.15 K) [kg/m3] | mass density (353.15 K) [kg/m3]
1 | CCC[N+](C)(C)CC.O=S(=O)([N-]S(=O)(=O)C(F)(F)F)C(F)(F)F | 1420.02 ± 0.63 | 1415.26 ± 0.62 | 1410.6 ± 0.62 | 1405.96 ± 0.61 | 1401.26 ± 0.61 | 1396.46 ± 0.6 | 1391.81 ± 0.6 | 1387.91 ± 0.59 | 1383.36 ± 0.59 | 1379.82 ± 0.58 | 1375.4 ± 0.6 | 1370.97 ± 0.58 | 1366.49 ± 0.58 | 1361.67 ± 0.57 | 1357.66 ± 0.56 | 1353.3 ± 0.56
2 | CCN(CC)c1c(N(CC)CC)[c+]1N(CC)CC.N#C[N-]C#N [1,2,3-tris(diethylamino)-cyclopropenylium dicyanoamide] | 1016.38 ± 1.9 | 1013.27 ± 1.9 | 1010.14 ± 1.9 | 1007 ± 1.9 | 1003.91 ± 1.9 | 1000.79 ± 1.9 | 997.7 ± 1.9 | 994.62 ± 1.9 | 991.55 ± 1.9 | 988.5 ± 1.9 | 985.46 ± 1.8 | 982.43 ± 1.8 | 979.41 ± 1.8 | 976.41 ± 1.8 | 973.4 ± 1.8 | 970.42 ± 1.8
